Test results published in patent publication US20260297542A1, “HERBICIDE RESISTANT PLANTS” (SYNGENTA CROP PROTECTION AG, priority 2023, published 2026).
Residue numbers refer to the chain shown, from its start. Where two headings read alike, the source gives them in different places.

Legend:
[1] = target: T1, His-TEV-AtPP01 ΔcTP V030 (SEQ ID NO: 374) (Arabidopsis thaliana, UniProt P55826, S305L/Y426V); experiment: PPO fluorescence IC50 assay, partially purified enzyme; format: biochemical
T1 construct: with cTPs removed; made in house; host or cells: E. coli BL21 (DE3), His GraviTrap, partially purified
T1 sequence (P55826 with tags, fused parts or gaps S305L/Y426V): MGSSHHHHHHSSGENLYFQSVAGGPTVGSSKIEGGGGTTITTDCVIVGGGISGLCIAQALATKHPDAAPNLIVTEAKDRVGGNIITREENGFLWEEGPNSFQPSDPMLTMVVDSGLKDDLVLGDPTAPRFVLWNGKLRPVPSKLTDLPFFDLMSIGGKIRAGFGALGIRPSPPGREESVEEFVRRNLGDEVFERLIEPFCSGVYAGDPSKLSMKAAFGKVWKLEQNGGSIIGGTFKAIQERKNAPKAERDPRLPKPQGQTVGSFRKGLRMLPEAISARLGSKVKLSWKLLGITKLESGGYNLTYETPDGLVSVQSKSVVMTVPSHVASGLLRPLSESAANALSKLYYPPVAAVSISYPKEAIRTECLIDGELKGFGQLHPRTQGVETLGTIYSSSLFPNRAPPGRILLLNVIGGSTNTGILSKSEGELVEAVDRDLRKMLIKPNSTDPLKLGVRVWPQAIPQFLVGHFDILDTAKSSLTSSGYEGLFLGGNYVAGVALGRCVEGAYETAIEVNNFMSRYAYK
Excerpt: (§1) A pET24 plasmid containing a DNA sequence encoding variants of AtPPO1 derived from Arabidopsis thaliana with cTPs removed and both a 6×His tag and TEV protease cleavage tag added at the N-terminus, codon-optimised for expression in E. coli, and under control of a T7 promoter, was synthesised by Twist Bioscience. The following variants were synthesised: WT AtPPO1 (SEQ ID NO: 370), AtPPO1 L479M (SEQ ID NO: 371), AtPPO1 L479N (SEQ ID NO: 372), AtPPO1 S305L Y426V (SEQ ID NO: 374) and AtPPO1 S305L Y426V L479M (SEQ ID NO: 373). This plasmid was expressed in E. coli BL21 (DE3) with 50 μg/mL kanamycin selection. 10 mL of overnight cultures grown at 37° C. were used to inoculate 1 L AIM (AIM-Terrific Broth Base including Trace elements, Formedium) in 2 L shake flasks. Cultures were grown at 37° C., 200 rpm for 3 hours and then overnight at 26° C. Cells were harvested centrifugation. 5-15 g of cell pellet was lysed in and resuspended in ratio of 1:1.5 in lysis buffer (20 mM Tris pH8, 500 mM sodium chloride, 10% glycerol, 1× complete Protease EDTA-free Inhibitor Tablet (Roche), 10 mM imidazole). The resuspension was sonicated at 75% using 10 cycles of 30 seconds, 40 seconds off. After sonication Triton X-100 was added to the lysates at a final concentration of 0.5%. The lysates were centrifuged at 20,000 rpm for 25 min at 4° C. Cleared lysates were loaded on His GraviTrap (Cytiva) columns, washed with 20 mL of lysis buffer and eluted in elution buffer (20 mM Tris pH8, 500 mM sodium chloride, 10% glycerol, 200 mM imidazole, 0.03% (v/v) Triton X-100). The eluate was desalted on a PD10 column and 2.5-3.2 mL was collected. Protein concentration was measured and calculated using the absorbance at 280 nm. Extracts were diluted 1 in 4 and 10 uL was analysed by SDS PAGE.
(§2) Partially purified Protoporphyrinogen Oxidase enzymes were assayed for activity using fluorescence adapted from the method of Shepherd & Dailey (Anal Biochem. 2005 344(1) 115-121). The assay was performed in black 384 well plates with a clear bottom and the total volume of the reaction mixture was 91 ul. The final assay mixture contained 100 mM K2HPO4 pH7.2, 1 mM Na2EDTA, 5 mM DTT, 20% glycerol (v/v), 0.05% Tween 20 (v/v), 1.1% DMSO (v/v), 1 uM protoporphyrinogen IX and 1.5 nM enzyme. Compounds were dissolved in DMSO at 1 mM and a 4-fold serial dilution carried out to give 8 rates. 1 ul was added to the assay mixture. This gave final compound concentrations of 11, 2.7, 0.69, 0.17, 0.04, 0.01, 0.002, 0.0007 uM. Enzyme and inhibitor were preincubated for 5 minutes prior to starting the reaction with the addition of the substrate. […] IC50s were calculated using GraphPad Prism 7.05 nonlinear regression (Table 6). Each compound was tested in duplicate.

[2] = target: T2, His-TEV-AtPPO1 ΔcTP V002 (SEQ ID NO: 373) (Arabidopsis thaliana, UniProt P55826, L479M/S305L/Y426V); experiment: as above; format: biochemical
T2 construct: with cTPs removed; made in house; host or cells: E. coli BL21 (DE3), His GraviTrap, partially purified
T2 sequence (P55826 with tags, fused parts or gaps S305L/Y426V/L479M): T1 sequence (P55826 with tags, fused parts or gaps S305L/Y426V) with L464M
Excerpt: as §1, §2

[3] = role: inhibitor, 1 uM protoporphyrinogen IX, <1.0 is below detection limit of assay

Row | Compound | IC50 [1] [nM] | IC50 [2] [nM] | IC50 [1, 3] [nM] | IC50 [2, 3] [nM]
1 | C#CCOc1cc(-n2nc3n(c2=O)CCCC3)c(Cl)cc1Cl [Azafenadin] | 117 | 149 | – | –
2 | C=CCOC(=O)C(C)(C)OC(=O)c1cc(-n2c(=O)cc(C(F)(F)F)n(C)c2=O)ccc1Cl [Butafenacil, butafenacil] | 11 | 12.5 | – | –
3 | COC(=O)C(C)ON=Cc1cc(-n2c(=O)cc(C(F)(F)F)n(C)c2=O)c(F)cc1Cl (centres unmarked) [Flufenoximacil, flufenoximacil] | – | – | 717 | 863
4 | C#CCN1C(=O)COc2cc(F)c(N3C(=O)C4=C(CCCC4)C3=O)cc21 [Flumioxazin, flumioxazin] | 47.2 | 187 | – | –
5 | CS(=O)(=O)NC(=O)c1cc(Oc2ccc(C(F)(F)F)cc2Cl)ccc1[N+](=O)[O-] [Fomesafen, fomesafen] | 0.7 | 0.5 | – | –
6 | CCOC(=O)COc1ncccc1Oc1cc(-n2c(=O)cc(C(F)(F)F)n(C)c2=O)c(F)cc1Cl [Herbicide A, epyrifenacil] | 323 | 447 | – | –
7 | C#CCN1C(=O)C(F)(F)Oc2cc(F)c(-n3c(=O)n(C)c(=S)n(C)c3=O)cc21 [Herbicide B, trifludimoxazin] | 1.3 | 2.1 | – | –
8 | CCOC(=O)C1(C)CC(c2cc(-n3c(=O)cc(C(F)(F)F)n(C)c3=O)c(F)cc2Cl)=NO1 (centres unmarked) [Herbicide C, 3-(2-chloro-4-fluoro-5-(3-methyl-2,6-dioxo-4-trifluoromethyl-3,6-dihydropyrimidin-1(2H)-yl)phenyl)-5-methyl-4,5-dihydroisoxazole-5-carboxylic acid ethyl ester] | 92 | 121 | – | –
9 | CCOC(=O)[C@]1(C)CC(c2cc(-n3c(=O)n(C)c(=S)n(C)c3=O)c(F)cc2Cl)=NO1 [Herbicide D, ethyl (5S)-3-[2-chloro-5-(3,5-dimethyl-2,6-dioxo-4-thioxo-1,3,5-triazinan-1-yl)-4-fluoro-phenyl]-5-methyl-4H-isoxazole-5-carboxylate] | 269 | 335 | – | –
10 | CC(C)N(C)S(=O)(=O)NC(=O)c1cc(-n2c(=O)cc(C(F)(F)F)n(C)c2=O)c(F)cc1Cl [Herbicide E, saflufenacil] | 547 | 998 | – | –
11 | CC(C)Oc1cc(-n2nc(C(C)(C)C)oc2=O)c(Cl)cc1Cl [Oxadiazaon] | 4600 | 5620 | – | –
12 | C#CCN(C)c1c(C#N)cnn1-c1nn2c(c1Cl)CCCC2 [Pyraclonil] | 4350 | 5560 | – | –
13 | CCOC(=O)COc1cc(-c2nn(C)c(OC(F)F)c2Cl)c(F)cc1Cl [Pyraflufen-ethyl, pyraflufen-ethyl] | 18.6 | 24.2 | – | –
